Data: patent publication US20230147588A1, “USE OF1,9-DECANEDIOL IN INHIBITING AMMONIA VOLATILIZATION FROM SOIL” (INSTITUTION OF SOIL SCIENCE, CHINESE ACADEMY OF SCIENCES, priority 2021, published 2023)

What was measured:
[1] = tested on: ammonia volatilization from soil; test: Soil column culture: effects of different inhibitors on ammonia volatilization from soil (Test Example 2); details: 21 days; for inhibition of ammonia volatilization from soil compared with the urea treatment (U): 200 mg N per kg soil; for order of inhibition effects of ammonia volatilization, from high to low: suffix -100 / -500 = addition in soil in mg/kg, with urea
Source text: A soil column culture method is used for the test (FIG. 1). The soil column is 18 centimeters (cm) in height and 5 cm in inner diameter, which is divided into a leak-proof layer, a soil-fertilizer mixed layer, a flooded layer, and an idle layer (also referred to as spare layer). A leak-proof pad and 1 cm thick quartz sand are placed in the leak-proof layer at a bottom of the soil column firstly to prevent soil leakage and simulate a real situation in the field, and then the experimental soil is added to the soil-fertilizer mixed layer, and after compaction, a bottom leaching switch is turned on and water is added to restore the soil activity. After one night of soil recovery activity, the bottom leaching switch is turned off, and the urea required for each treatment is mixed with 1,9-decanediol to prepare a mixed solution. The mixed solution is evenly applied to the soil-fertilizer mixture layer of the soil column, the water is added to maintain a flooded state, and the ammonia volatilization from soil is monitored for 21 consecutive days.
2.1 Test Soil: The Same as Test Example 1
2.2 test reagent: 1, 9-decanediol, the same as test example 1, dicyandiamide (DCD, C2H4N4), linolenic acid (LN, […]) and methyl 3-(4-hydroxyphenyl)propionate (MHPP, C10H12O3) are purchased from Sigma.
2.3 experimental treatments: urea treatment (U), DCD + urea treatment, LN + urea treatment, MHPP + urea treatment, and 1,9-decanediol + urea treatment are set in experiments, in which an addition of DCD in soil is 20 mg/kg, and additions of LN, MHPP and 1,9-decanediol in soil each includes 100 mg/kg and 500 mg/kg, numbered as: DCD, LN-100, LN-500, MHPP-100, MHPP-500, 1,9-D-100, and 1,9-D-500. Each treatment is repeated three times. The nitrogen application rate is 200 mg nitrogen per kilogram soil.
2.4 Experimental Steps: The Same as the Test Example 1

nitrification process = details: at low concentration; cited from earlier work
[2] = tested on: ammonia volatilization from soil; test: Soil column culture: effects of 1,9-decanediol on ammonia volatilization from soil (Test Example 1); details: paddy soil column, 21 days
Experimental: 1.1 test soil: the test soil type is paddy soil, and the texture is sandy loam. It is collected from 0~20 centimeters (cm) topsoil of the experimental field in Yingtan City, Jiangxi Province (28°15′N, 116°55′E), sieved with a 2 millimeters (mm) sieve, and mixed evenly. See Table 1 for basic physical and chemical properties.
1.3 experimental treatment: urea treatment (U) and 1,9-decanediol + urea treatment are set in experiments. Among them, 1, 9-decanediol is added in soil at four levels of 100 mg/kg, 200 mg/kg, 500 mg/kg, and 1000 mg/kg, numbered as: 1, 9-D-100, 1, 9-D-200, 1, 9-D-500, and 1, 9-D-1000 respectively. Each treatment is repeated three times. The nitrogen application rate is 200 mg nitrogen per kilogram soil.
A soil column culture method is used for the test (FIG. 1). The soil column is 18 centimeters (cm) in height and 5 cm in inner diameter, which is divided into a leak-proof layer, a soil-fertilizer mixed layer, a flooded layer, and an idle layer (also referred to as spare layer). […] The mixed solution is evenly applied to the soil-fertilizer mixture layer of the soil column, the water is added to maintain a flooded state, and the ammonia volatilization from soil is monitored for 21 consecutive days.

[3] = paddy soil column, additions 100 and 500 mg/kg with urea

| Compound | ammonia volatilization from soil compared with LN and MHPP treatments [1, 3] | inhibition of ammonia volatilization from soil compared with the urea treatment (U) [1, 3] | order of inhibition effects of ammonia volatilization, from high to low [1] | inhibition of the nitrification process (nitrification process) | dose dependence of the inhibition effect of ammonia volatilization ([2]; 100 to 1000 mg/kg in soil with urea) | total amount of ammonia volatilization from soil compared with the treatment (U) without 1,9-decanediol ([2]; flooded, 100, 200, 500, 1000 mg/kg in soil with urea, 200 mg N per kg soil) |
| --- | --- | --- | --- | --- | --- | --- |
| CC(O)CCCCCCCCO (centres unmarked) [1,9-decanediol] | significantly lower than that from soil treated with LN and MHPP | can inhibit ammonia volatilization from soil | 1,9-D-500 > LN-500 > 1,9-D-100 >MHPP-500 > LN-100 > MHPP-100 | can inhibit the nitrification process at low concentration | more obvious with the increase of the dosage | significantly reduce the total amount of ammonia volatilization from soil |
| COC(=O)CCc1ccc(O)cc1 [MHPP, methyl 3-(4-hydroxyphenyl)propionate, reference compound] |  | can inhibit ammonia volatilization from soil | 1,9-D-500 > LN-500 > 1,9-D-100 >MHPP-500 > LN-100 > MHPP-100 |  |  |  |
